Laboratory results: patent US11959122B2

Tests used:
[1] = tested on: microbial flora in the target watershed; details: determined by EUCAST database; unit assumed; cited from earlier work
[2] = tested on: microbial flora in the target watershed; experiment: minimum inhibitory concentration (MIC) by EUCAST database and drug resistance prediction invalid concentration PNECr; details: PNECR=MIC/AF, AF 10
Description: Minimum inhibitory concentration (MIC) of some antibiotics and drug resistance prediction invalid concentration (PNECr) of microbes

[3] = tested on: microbial flora in the target watershed (environmental microbes, resistant genes); details: logistic model fitting of S against concentration; target solution DNA
[4] = buffer; cited from earlier work

Molecule | Observed MIC [1] [µg/mL] | PNECr [2] | MSC value (antibiotic concentration at S=0) [3] [µg/L] | t1/2 [4] [days]
NCC[C@H](O)C(=O)N[C@@H]1C[C@H](N)[C@@H](O[C@H]2O[C@H](CN)[C@@H](O)[C@H](O)[C@H]2O)[C@H](O)[C@H]1O[C@H]1O[C@H](CO)[C@@H](O)[C@H](N)[C@H]1O [Amikacin] | 250 | 25 | – | –
C[C@@H]1[C@H](O)[C@@H](C)/C=C/C=C/C=C/C=C/C=C/C=C/C=C/[C@H](O[C@@H]2O[C@H](C)[C@@H](O)[C@H](N)[C@@H]2O)C[C@@H]2O[C@](O)(C[C@@H](O)C[C@@H](O)[C@H](O)CC[C@@H](O)C[C@@H](O)CC(=O)O[C@H]1C)C[C@H](O)[C@H]2C(=O)O [Amphotericin B] | 8 | 0.8 | – | –
COC[C@H]1O[C@@H](OC2OC[C@@H]3O[C@]4(O[C@H]3[C@H]2OC(=O)C(C)C)O[C@H](C)[C@@](O)(C(C)=O)[C@@H]2OCO[C@H]24)[C@@H](OC)[C@@H](O)[C@@H]1O[C@@H]1O[C@H](C)[C@H](OC)[C@H](O[C@H]2C[C@@]3(C)OC4(C[C@@H](O)[C@H](O[C@H]5C[C@@H](O)[C@H](OC(=O)c6c(C)c(Cl)c(O)c(Cl)c6OC)[C@@H](C)O5)[C@@H](C)O4)O[C@@H]3[C@@H](C)O2)[C@H]1O (stereo partly shown) [Avilamycin] | 1000 | 100 | – | –
C[C@@H](O)[C@H]1C(=O)N2C(C(=O)O)=C(S[C@@H]3CN[C@H](CNS(N)(=O)=O)C3)[C@H](C)[C@H]12 [Doripenan] | 2 | 0.2 | – | –
O=C1CN(/N=C/c2ccc([N+](=O)[O-])o2)C(=O)N1 [Furantoin] | 4000 | 400 | – | –
CC1(C)S[C@@H]2[C@H](/N=C/N3CCCCCC3)C(=O)N2[C@H]1C(=O)O [Messilinan] | 64 | 6.4 | – | –
CN(C)[C@@H]1C(O)=C(C(N)=O)C(=O)[C@@]2(O)C(O)=C3C(=O)c4c(O)cccc4[C@@](C)(O)[C@H]3[C@H](O)[C@@H]12 [Oxytetracycline] | 125 | 12.5 | – | –
CN(C)[C@@H]1C(O)=C(C(N)=O)C(=O)[C@@]2(O)C(O)=C3C(=O)c4c(O)cccc4[C@@](C)(O)[C@H]3C[C@@H]12 [Tetracycline] | – | – | ~11.39 | –
CS(=O)(=O)c1ccc([C@@H](O)[C@@H](CO)NC(=O)C(Cl)Cl)cc1 [Thiamphenicol] | 500 | 50 | – | –
CC1(C)S[C@@H]2[C@H](NC(=O)[C@H](C(=O)O)c3ccsc3)C(=O)N2[C@H]1C(=O)O [Ticarcillin] | 250 | 25 | – | –
CN(C)c1cc(NC(=O)CNC(C)(C)C)c(O)c2c1C[C@H]1C[C@H]3[C@H](N(C)C)C(O)=C(C(N)=O)C(=O)[C@@]3(O)C(O)=C1C2=O [Tigecycline] | 16 | – | – | –
NC[C@H]1O[C@H](O[C@H]2[C@H](O)[C@@H](O[C@H]3O[C@H](CO)[C@@H](O)[C@H](N)[C@H]3O)[C@H](N)C[C@@H]2N)[C@H](N)C[C@@H]1O [Tobramycin] | 16 | – | – | –
N[C@@H]1[C@H]2CN(c3nc4c(cc3F)c(=O)c(C(=O)O)cn4-c3ccc(F)cc3F)C[C@@H]12 [Travafloxacin] | 8 | 0.8 | – | –
COc1cc(Cc2cnc(N)nc2N)cc(OC)c1OC [Trimethoprim] | 16 | – | – | –
CC[C@H]1OC(=O)C[C@@H](O)[C@H](C)[C@@H](O[C@@H]2O[C@H](C)[C@@H](O[C@H]3C[C@@](C)(O)[C@@H](O)[C@H](C)O3)[C@H](N(C)C)[C@H]2O)[C@@H](CC=O)C[C@@H](C)C(=O)/C=C/C(C)=C/[C@@H]1CO[C@@H]1O[C@H](C)[C@@H](O)[C@@H](OC)[C@H]1OC [Tylosin] | 2000 | 200 | – | –
C[C@@H](c1ncncc1F)[C@](O)(Cn1cncn1)c1ccc(F)cc1F [Voriconazole] | 2 | – | – | –
Bacitracin | 2000 | 200 | – | –
Capreomycin | 1000 | 100 | – | –
Cefadroxil | 125 | 12.5 | – | –
Cefalexin | 250 | 25 | – | –
Chloramphenicol | 125 | 12.5 | – | –
Colistin | 64 | 6.4 | – | –
Dehydrated erythromycin | – | – | – | 365
Ethambutol | 1000 | 100 | – | –
FLORFENICOL | 125 | 12.5 | – | –

Molecule | Observed MIC [1] [µg/mL] | PNECr [2] | MSC value (antibiotic concentration at S=0) [3] [µg/L] | t1/2 [4] [days]
Fosfomycin | 125 | 12.5 | – | –
Fusiform acid | 32 | 3.2 | – | –
Gentamicin | 16 | 1.6 | – | –
Kanamycin | 125 | 12.5 | – | –
Lincomycin | 500 | 50 | – | –
Linezolid | 125 | 12.5 | – | –
Lolakabiv | 125 | 12.5 | – | –
Mikafenjin | 4 | 0.4 | – | –
Nalidixic acid | 500 | 50 | – | –
Narasin | 125 | 12.5 | – | –
Neomycin | 125 | 12.5 | – | –
Pefloxacin | 4000 | 400 | – | –
Penicillin | 4 | 0.4 | – | –
Quinupustine | 4 | 0.4 | – | –
Sparfloxacin | 500 | 50 | – | –
Spiramycin | 2000 | 200 | – | –
Streptomycin | 125 | 12.5 | – | –
Sulbactam sodium | 250 | 25 | – | –
Sulfamethoxazole | 1000 | 100 | – | –
Teicoplanin | 1000 | 100 | – | –
Tiamulin | 500 | 50 | – | –
Tilmicosin | 250 | 25 | – | –
Vancomycin | 125 | 12.5 | – | –
Viomycin | 1000 | 100 | – | –
Virginiamycin | 250 | 25 | – | –
